Data from US9133235B2, “Macrocyclic antagonists of the motilin receptor for treatment of gastrointestinal dysmotility disorders” (Ocera Therapeutics, Inc., priority 2006, dated 2015).
“And” between values parts separate entries of the source, which are not always exact repeats. Identical values can stand only once.

How the values were obtained:
human motilin receptor = human motilin receptor (Homo sapiens, UniProt O43193); assay: Aequorin functional assay (motilin receptor); assay type: cell-based; parameters: host or cells: CHO-K1 cells co-expressing Gα16 and mitochondrially targeted Aequorin; conditions: functional activity, antagonist testing vs motilin 0.5 nM (EC80)
Method: B. Aequorin Functional Assay (Motilin Receptor)
The evaluation of compounds of the invention for functional activity can be conducted according to literature methods or as described below. (Carreras, C. W.; Siani, M. A.; Santi, D. V.; Dillon, S. B. Anal. Biochem. 2002, 300, 146-151.)
• Membranes were prepared using AequoScreen™ (EUROSCREEN, Belgium) cell lines expressing the human motilin receptor (cell line ES-380-A; receptor accession #AF034632). This cell line is constructed by transfection of the human motilin receptor into CHO-K1 cells co-expressing Gα16 and the mitochondrially targeted Aequorin (Ref. #ES-WT-A5). • Motilin (Bachem, #H-4385) • Assay buffer: DMEM-F12 (Dulbeccoe's Modified Eagles Medium) with 15 mM HEPES and 0.1% BSA (pH 7.0) • Coelenterazine (Molecular Probes™, Leiden, The Netherlands) Final Test Concentrations (N=5) for Compounds: • 10, 3.16, 1.0, 0.316, 0.10 μM. Compound Handling:
Compounds were provided as dry films at a quantity of approximately 1.2 μmol in pre-formatted 96-well plates. Compounds were dissolved in 100% DMSO at a concentration of 10 mM and stored at −20° C. until further use. Daughter plates were prepared at a concentration of 500 μM in 30% DMSO with 0.1% BSA and stored at −20° C. until testing. On the test day, compounds were allowed to thaw at room temperature and than diluted in assay buffer according to the desired test concentrations. Under these conditions, the maximum final DMSO concentration in the assay was 0.6%.
Cells are collected from culture plates with Ca^2+ and Mg^2+-free phosphate buffered saline (PBS) supplemented with 5 mM EDTA, pelleted for 2 minutes at 1000×g, resuspended in assay buffer (see above) at a density of 5×10^6 cells/mL and incubated overnight in the presence of 5 μM coelenterazine. After loading, cells were diluted with assay buffer to a concentration of 5×10^5 cells/mL.
For agonist testing, 50 μL of the cell suspension was mixed with 50 μL of the appropriate concentration of test compound or motilin (reference agonist) in 96-well plates (duplicate samples). The emission of light resulting from receptor activation was recorded using the Functional Drug Screening System 6000 ‘FDSS 6000’ (Hamamatsu Photonics K. K., Japan).
For antagonist testing, an approximate EC80 concentration of motilin (i.e. 0.5 nM; 100 μL) was injected onto the cell suspension containing the test compounds (duplicate samples) 15-30 minutes after the end of agonist testing and the consequent emission of light resulting from receptor activation was measured as described in the paragraph above.
Results are expressed as Relative Light Units (RLU). Concentration response curves were analyzed using GraphPad™ Prism® (GraphPad Software, San Diego, Calif.) by non-linear regression analysis (sigmoidal dose-response) based on the equation E=Emax/(1+EC50/C)n where E is the measured RLU value at a given agonist concentration (C), Emax is the maximal response, EC50 is the concentration producing 50% stimulation and n is the slope index. For agonist testing, results for each concentration of test compound were expressed as percent activation relative to the signal induced by motilin at a concentration equal to the EC80 (i.e. 0.5 nM). For antagonist testing, results for each concentration of test compound were expressed as percent inhibition relative to the signal induced by motilin at a concentration equal to the EC80 (i.e. 0.5 nM).

[1] = Oral bioavailability in rat of representative formulations of compound 552; assay type: in vivo
From the text: The pharmacokinetic behavior of compound of the invention can be ascertained by methods well known to those skilled in the art. (Wilkinson, G. R. “Pharmacokinetics: The Dynamics of Drug Absorption, Distribution, and Elimination” in Goodman & Gilman's The Pharmacological Basis of Therapeutics, Tenth Edition, Hardman, J. G.; Limbird, L. E., Eds., McGraw Hill, Columbus, Ohio, 2001, Chapter 1.) The following method was used to investigate the pharmacokinetic parameters (elimination half-life, total plasma clearance, etc.) for intravenous, subcutaneous and oral administration of compounds of the present invention.
Preparation of Representative Formulations of Compounds of the Invention
The pharmacokinetic parameters of representative formulations are determined through established methods known to those skilled-in the art as previously referenced in Method 3-I. Results with representative formulations for a representative compound of the present invention are shown below.

[2] = oral 8 mg/kg, 5% HP-β-CD in water
[3] = oral 8 mg/kg, Cremophor EL/Lysorbate 80/Soybean oil
[4] = oral 8 mg/kg, Oleic Acid/Labrafil
[5] = plasma, IV 2 mg/kg, 5% HP-β-CD in water
[6] = plasma, iv, 2 mg/kg, IV 2 mg/kg, 5% HP-β-CD in water
[7] = plasma, po, 8 mg/kg, oral 8 mg/kg, 5% HP-β-CD in water
[8] = plasma, po, 8 mg/kg, oral 8 mg/kg, Cremophor EL/Lysorbate 80/Soybean oil
[9] = plasma, po, 8 mg/kg, oral 8 mg/kg, Oleic Acid/Labrafil

Sequence of human motilin receptor (O43193 whole entry): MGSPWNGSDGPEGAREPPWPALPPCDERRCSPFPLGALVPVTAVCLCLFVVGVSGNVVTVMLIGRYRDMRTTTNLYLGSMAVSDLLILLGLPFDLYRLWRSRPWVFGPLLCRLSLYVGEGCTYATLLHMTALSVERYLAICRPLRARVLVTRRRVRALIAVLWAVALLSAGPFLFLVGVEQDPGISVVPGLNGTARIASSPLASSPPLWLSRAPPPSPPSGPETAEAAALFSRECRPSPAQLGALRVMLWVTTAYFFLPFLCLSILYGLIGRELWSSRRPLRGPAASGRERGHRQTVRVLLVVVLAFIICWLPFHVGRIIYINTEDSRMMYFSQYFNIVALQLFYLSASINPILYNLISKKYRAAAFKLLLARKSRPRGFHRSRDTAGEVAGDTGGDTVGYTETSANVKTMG

With `CC(C)[C@H]1NC(=O)[C@@H](Cc2cccc(C(F)(F)F)c2)NCCOc2ccccc2CCCNC(=O)[C@H](CN(C)C)NC1=O` [Compound 502] the IC50 (human motilin receptor) was no more than 10 nM.
In the case of `CCC[C@@H]1NC(=O)[C@@H](C(C)C)NC(=O)[C@@H](Cc2ccc(O)c(Cl)c2)N[C@@H](C)COc2ccccc2CCCNC1=O` [Compound 552], the “F (%) (average)” value [1, 2] is reported as 10 ± 5%, the “Tmax (min)” value [1, 2] is reported as 5/15 and the “F (%) (individual results)” value ([1]; oral 8 mg/kg, 5% HP-β-CD in water, 8 mg/kg) is reported as 6% and 15% and 9%. For the same molecule, the “F (%) (average)” value [1, 3] was 16 ± 1%, the “Tmax (min)” value [1, 3] was 15/30 and the “F (%) (individual results)” value ([1]; oral 8 mg/kg, Cremophor EL/Lysorbate 80/Soybean oil, 8 mg/kg) was 18% and 15% and 16%. The “F (%) (average)” value [1, 4] was 14 ± 7%, the “Tmax (min)” value [1, 4] was 30/60 and the “F (%) (individual results)” value ([1]; oral 8 mg/kg, Oleic Acid/Labrafil, 8 mg/kg) was 7% and 21% and 15%. It also gave a Clearance [1, 5] of 55 ± 10 mL/min/kg, a Tmax [1, 5] of 5 min and a half-life [1, 5] of 45 ± 13 min. The AUC(0-inf) [1, 6] was 616 ng·h/mL, the Cmax [1, 6] was 1720 ± 299 ng/mL and the AUC(0-inf) [1, 7] was 255 ng·h/mL. The Cmax [1, 7] was 369 ± 97 ng/mL, the AUC(0-inf) [1, 8] was 397 ng·h/mL and the Cmax [1, 8] was 229 ± 162 ng/mL. It also gave an AUC(0-inf) [1, 9] of 357 ng·h/mL, a Cmax [1, 9] of 143 ± 77 ng/mL and an IC50 (human motilin receptor) of no more than 1 nM.
